Measured values published in patent US20220218652A1, “METHODS OF TREATING CYTOKINE RELEASE SYNDROME” (The General Hospital Corporation, priority 2018, published 2022).

Columns and labels:
[1] = tested on: TgSOD1 mice; assay: Meso Scale Discovery multi-spot cytokine assay, spinal cord lysates of TgSOD1 mice; format: in vivo; conditions: TgSOD1-Cromolyn vs TgSOD1-Vehicle; cromolyn sodium 6.3 mg/kg i.p. once daily, 5 days per week from P60; p=0.0273
Description: (§1) Cromolyn. sodium was provide by AZ Therapies and dissolved in PBS. 100 mM solution was used for in vivo experiments. Dulbecco's PBS was used to dilute the solution for intraperitoneal injections for a final dose of 6.3 mg/kg.
(§2) 149 male and female age- and litter-matched transgenic TgSOD1^G93A and wild-type WtSOD1^G93A mice were used with the following breakdown: Females (19 WtSOD1-Vehicle, 17 WtSOD1-Cromolyn, 19 TgSOD1-Vehicle, and 17 TgSOD1-Cromolyn) and Males (18 WtSOD1-Vehicle, 21 WtSOD1-Cromolyn, 21 TgSOD1-Vehicle, 17 TgSOD1-Cromolyn). The mice received once daily injections of either vehicle or cromolyn sodium (6.3 mg/kg, […] i.p.) 5 days per week starting at P60 until euthanasia.
B6SJL-Tg (SOD1 G93A)1Gur/J transgenic male mice were obtained from Jackson Laboratory and bred with C57BL/6 female mice to obtain wild-type WtSOD1 and mutant transgenic TgSOD1^G93A-expressing mice. To determine mouse genotype, RNA extraction and complimentary DNA (cDNA) synthesis was performed from tail biopsies acquired at postnatal day 28-40 followed by quantitative real-time PCR (qRT-PCR) using primers for the mutant G93A SOD1 gene (GGGAAGCTGTTGTCCCA AG and […])(SEQ ID NO: 1 and SEQ ID NO: 2, respectively). Both age- and litter-matched WtSOD1 and TgSOD1 male. and female mice were used for all studies as described below. […]

[2] = tested on: TgSOD1 mice; assay: Meso Scale Discovery multi-spot cytokine assay, plasma of TgSOD1 mice; format: in vivo; conditions: 6.3 mg/kg i.p.
Description: as §1, §2
B6SJL-Tg (SOD1 G93A)1Gur/J transgenic male mice were obtained from Jackson Laboratory and bred with C57BL/6 female mice to obtain wild-type WtSOD1 and mutant transgenic TgSOD1^G93A-expressing mice. To determine mouse genotype, RNA extraction and complimentary DNA (cDNA) synthesis was performed from tail biopsies acquired at postnatal day 28-40 followed by quantitative real-time PCR (qRT-PCR) using primers for the mutant G93A SOD1 gene (GGGAAGCTGTTGTCCCA AG and […])(SEQ ID NO: 1 and SEQ ID NO: 2, respectively). Both age- and litter-matched WtSOD1 and TgSOD1 male. and female mice were used for all studies as described below.
Spinal cord frozen tissue was homogenized in ice-cold RIPA buffer (Thermo Fisher Scientific, #8990) supplemented with protease inhibitor cocktail (Thermo Fisher Scientific, #78430). Samples were centrifuged at 45,000 g for 30 minutes at 4° C. using an Optima TL ultracentrifuge and a TLA 120.2 rotor (Beckman Coulter). Expression levels of the cytokines were assessed in the supernatants derived from spinal cord tissue or in the plasma, using an electrocheiniluminescence-based multi-array method and MESO Quickplex SQ 120 system (MSD, Rockville, Md., USA). The 96-well V-FLEX Proinflammatory Mouse 1 Kit (Meso Scale Discovery, #K15048D) was used to measure simultaneously IL-1β, IL-2, IL-5, IL-6, IL-10, and TNFα, following the manufacturer's instructions. Briefly, samples were diluted in the calibrator and added to the plate coated with an array of cytokine capture antibodies. Samples were incubated. in the plate for 2 hours with shaking at room temperature, followed by washes with the wash buffer provided in the kit. The detection antibody solution was added to each well and the plate was incubated for 2 hours. The plate was washed with the wash buffer and the 2× Read Buffer T was added. The signal was immediately measured on a MESO QuickIlex SQ 120 instrument and was analyzed using the DISCOVERY WORKBENCH 4.0 software (Meso Scale Diagnostics, LLC., Rockville, Md., USA). Protein concentrations in the supernatants or the plasma samples were measured using the Pierce BCA protein assay kit (Thermo Scientific). Values in the graphs represent levels of cytokines normalized to the corresponding protein concentrations.
Data are presented as median values. Box plots are used for graphical representation of population data with the central line representing the median, the edges representing the interquartile ranges, and the whiskers representing 10-90th percentiles. Data are also represented as medians±interquartile ranges or percent values. Sample sizes are included in the figure legends. Comparisons for unrelated samples were performed using a two-way ANOVA followed by Tukey's or Sidak's multiple comparison's test or a one-way ANOVA test followed by Tukey's multiple comparison post-tests at a significance level (a) of 0.05. For p<0.05 and >0.00001, exact P values (two-tailed) are reported.
Additionally, levels of L-1β, IL-2, IL-5, IL-6, IL-10, and TNFα were assessed in the plasma of a subset of mice (Females: 13 WtSOD1-Vehicle, 15 WtSOD1-Cromolyn, 6 TgSOD1-Vehicle, and 6 TgSOD1-Cromolyn; and Males: 14 WtSOD1-Vehicle, 10 WtSOD1-Cromolyn, 6 TgSOD1-Vehicle, 3 TgSOD1-Cromolyn).

[3] = tested on: BV2 microglial cells; assay: Aβ42 uptake by ELISA and confocal microscopy in naive BV2 microglial cells; format: cell-based
Description: (§3) Naive BV2 microglial cells were treated with DMSO (control) or cromolyn (500 μM) for 16 hours. Afterwards, the cells were incubated with fluoresceraly-labeled A1342 (red) and DMSO or cromolyn for 2 hours. After incubation, the cells were labeled with a plasma membrane dye (PM, green) and imaged. BV2 microglial cells or BV2 cells stably expressing CD33 (BV2-CD33wT) were treated with DMSO or different concentrations of cromolyn for 16 hours. Then, cells were incubated with soluble untagged Aβ42 and DMSO or cromolyn for 2 hours and collected for ELBA analysis.

[4] = tested on: BV2-CD33wT cells; assay: Aβ42 uptake by ELISA in BV2 cells stably expressing CD33; format: cell-based
Description: as §3

[5] = 16 hours pretreatment, then 2 hours with Aβ42, vs vehicle (DMSO), ELISA
[6] = different concentrations of cromolyn

## O=C(O)c1cc(=O)c2c(OCC(O)COc3cccc4oc(C(=O)O)cc(=O)c34)cccc2o1 [cromolyn, cromolyn sodium]
[1]
  TNFα level in spinal cord: significant decrease
[2]; TgSOD1-Cromolyn vs TgSOD1-Vehicle, p=0.0095
  IL-10 level in plasma: significantly decreased
[2]; TgSOD1-Cromolyn vs TgSOD1-Vehicle, p=0.0211
  IL-2 level in plasma: significantly decreased
[2]; TgSOD1-Cromolyn vs TgSOD1-Vehicle, p=0.0273
  IL-6 level in plasma: significantly decreased
[2]; TgSOD1-Cromolyn vs TgSOD1-Vehicle, p=0.110
  TNFα level in plasma: trend towards a decrease
[2]; between groups
  IL-1β level in plasma: no statistically significant difference
  IL-5 level in plasma: no statistically significant difference
[3]; [5]
  Aβ42 uptake in naive BV2 microglial cells: increased Aβ42 uptake
[3]; [6]
  dose dependence of Aβ42 uptake modulation, naive BV2 cells: dose-dependent effect
[4]; [5]
  internalized Aβ42 in BV2-CD33wT cells: increased levels of internalized Aβ42
[4]; [6]
  dose dependence of Aβ42 uptake modulation, BV2-CD33wT cells: dose-dependent effect
